Reference: patent US20210378992A1, “METHODS FOR TREATING A SUBTYPE OF SMALL CELL LUNG CANCER” (Auransa Inc., priority 2018, published 2021)

Assays:
[1] = system: human small cell lung cancer sample LU5243; test: In vivo patient derived xenograft (PDX) study, LU5243 (predicted responder); parameters: species or system mice; details: pentamidine 10 or 20 mg/kg IP QD, FIGS. 1 and 2
Protocol: 50 mice were enrolled in the study. 25 mice were randomly allocated to each of two human small cell lung cancer tumor models: LU5181 and LU5243. […] However, expression profile of human LU5243, another SCLC tumor sample, successfully matched with the predicted gene expression signature for pentamidine (e.g., as described above, and in Table 1 and Table 2).
Randomization of the 50 mice was performed using the multi-task method in the Study Log software on day 0. Average tumor volume (mm^3) for each group ±SD at randomization was as follows. […]
Tumor cryovials containing tumor cells were thawed and prepared for inoculation into mice. Cells were washed in PBS, counted, and re-suspended in cold PBS at concentrations of 100,000 viable cells/100 μL. […]
Mice were monitored weekly for palpable tumors, or any changes in appearance or behavior. Once tumors were palpable, they were measured twice a week using calipers. Tumor volume was calculated using the following equation (longest diameter×shortest diameter^2)/2.
Stock solution of pentamidine was made in water at 10 mg/mL. Amount needed for dosing for one week was calculated and was diluted with PBS. […]
Body weight was measured twice a week. […]
For all animals, tumors were collected, weighed, weight recorded and snap frozen. […]

[2] = system: biomarker genes of Tables 1, 2 and 3 (INSM1, GADD45G, C1QL1, STAT6, SMAD3, RNF43 and others); test: Biomarker gene expression after dosing of pentamidine in human SCLC PDX study; type: in vivo, mice; details: SCLC subtype sensitive to pentamidine
Description: A computational model was constructed to identify patient subpopulations of small cell lung cancer, leveraging data from 5 different datasets of treatment-naïve human small cell lung cancer biopsies (Gene Expression Omnibus identifiers GSE30219, GSE43346, GSE50451; George et al. (2015) Nature 524:47-53; and Rudin et al. (2012) Nat. Genet. 44:1111-1116). Pentamidine was a strong match to one SCLC subpopulation identified by the model. Potential biomarker genes for each subpopulation were discovered using another modeling approach. […] Among the 41 genes (see Tables 1, 2 and 3), the following six genes were selected for further study: INSM1, GADD45G, C1QL1, STAT6, SMAD3 and RNF43.
For all animals, tumors were collected, weighed, weight recorded and snap frozen. Blood for plasma isolation was taken from each animal at 4 hours after dosing. All samples collected from this study were stored in −80° C. For Group01-03, any time that an animal has to be taken down prior to normal end of study termination, the animal was dosed and sampled 4 hours after the dose was given. For group04, tumors were collected 4 hours after the third dose was given. Tumors were weighed and snap-frozen.

For `N=C(N)c1ccc(OCCCCCOc2ccc(C(=N)N)cc2)cc1` [Pentamidine, 1,5-Bis(4-amidinophenoxy)pentane], the “efficacy in PDX model (tumor volume)” value [1] was “significant efficacy”, the “expression of genes in Table 1 (INSM1, GADD45G, C1QL1) upon treatment with pentamidine” value ([2]; high expression biomarkers) was “repressed nearly to normal levels” and the “expression of genes in Table 2 (STAT6, SMAD3, RNF43) upon treatment with pentamidine” value ([2]; low expression biomarkers) was “increased nearly to normal levels”.
